How the values were obtained:
[1] = molecular target: T1, Beta-1 adrenergic receptor (Cavia porcellus, UniProt B0FL73); assay: Compound was tested for the biological activity at the Beta-1 adrenergic receptor; details: read-out: pA2 (converted)
[2] = molecular target: T1, Beta-1 adrenergic receptor; assay: Activity at beta-1 adrenergic receptor; details: read-out: pA2 (converted)

T1 sequence (B0FL73 whole entry): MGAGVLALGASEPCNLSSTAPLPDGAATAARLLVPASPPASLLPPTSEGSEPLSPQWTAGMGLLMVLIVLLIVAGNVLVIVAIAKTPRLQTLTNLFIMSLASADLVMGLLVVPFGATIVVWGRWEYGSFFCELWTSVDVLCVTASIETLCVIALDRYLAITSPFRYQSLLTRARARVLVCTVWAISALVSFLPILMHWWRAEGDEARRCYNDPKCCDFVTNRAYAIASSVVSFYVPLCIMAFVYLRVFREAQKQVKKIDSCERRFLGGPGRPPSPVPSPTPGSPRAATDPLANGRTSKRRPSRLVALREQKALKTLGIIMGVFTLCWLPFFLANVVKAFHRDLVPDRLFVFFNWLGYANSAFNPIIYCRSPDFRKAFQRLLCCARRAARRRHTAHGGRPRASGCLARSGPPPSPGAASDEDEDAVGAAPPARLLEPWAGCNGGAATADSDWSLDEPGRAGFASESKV

Kb [1] | Kb [2] | Structure (SMILES)
398 nM |  | COCCOc1ccc(OCC(O)CNC(C)C)cc1 (stereo not given)
 | 1.26 nM | CC(C)NCC(O)COc1ccc(-c2nc(-c3cccs3)c[nH]2)cc1 (stereo not given)
 | 63.1 nM | CCc1ccc(OCC(O)CNC(C)C)cc1 (stereo not given)
 | 6.31 nM | CC(C)NCC(O)COc1ccc(OCCOCCc2ccc(F)cc2)cc1 (stereo not given)
 | 25.1 nM | CC(C)NCC(O)COc1ccc(-c2ncc[nH]2)cc1 (stereo not given)

Reference: ChEMBL document CHEMBL1125549, “Computer-aided mapping of the beta-adrenoceptor. 1. Explanation for effect of para substitution on blocking activity at the beta-1-adrenoceptor” (J Med Chem, 1992)
